Data set [1] can be described thus: Probability of Ingredient Color Instability. The format is physicochemical.
A short description of data set [2]: Liquid dish neat product liquid-air partition coefficient. The format is physicochemical. Particulars: for Comment Code: Log of liquid dish neat product liquid-air partition coefficient: code letters K, L.
[3] abbreviates: class code letter within Comment Code.

The values below come from US20160090556A1, “PRODUCTS COMPRISING MALODOR REDUCTION MATERIALS” (The Procter & Gamble Company, priority 2014, published 2016).

Where two headings read alike, the source gives them in different places.

Consider `C=C(OCC)C1C(C)(C)CC(=O)CC1(C)C` [Material 182], for which, in data set [1] (setting [3]), the “Probability of Ingredient Color Instability (Comment Code E/F)” value (“Probability” for short) is listed as “F (Probability of Ingredient Color Instability<71%)”. The “Log of liquid dish neat product liquid-air partition coefficient (Comment Code K/L)” value (from here on “Log … (Comment Code K/L)”) in data set [2] (setting [3]) was “K (Log of liquid dish neat product liquid-air partition coefficient greater than or equal to −7)”.
In the case of `C=C(C)C1CC=C(COC(C)=O)CC1` (stereo not shown) [Material 947], the “Probability” value in data set [1] is listed as “F (Probability of Ingredient Color Instability<71%)”. Besides, the “Log … (Comment Code K/L)” value in data set [2] is recorded as “K (Log of liquid dish neat product liquid-air partition coefficient greater than or equal to −7)”.
Regarding `C=CCc1ccc(OC(C)=O)c(OC)c1` [Material 374], the “Probability” value in data set [1] (setting [3]) is listed as “F (Probability of Ingredient Color Instability<71%)”. The “Log … (Comment Code K/L)” value in data set [2] (setting [3]) is given as “K (Log of liquid dish neat product liquid-air partition coefficient greater than or equal to −7)”.
For `CCCCCCCC/C=C\CC=O` [Material 884], the “Probability” value in data set [1] is recorded as “F (Probability of Ingredient Color Instability<71%)”. The “Log … (Comment Code K/L)” value in data set [2] is on record as “K (Log of liquid dish neat product liquid-air partition coefficient greater than or equal to −7)”.
Take `CC1CC=CCCCCCCCC(=O)OCC1` (stereo not shown) [Material 52]: the “Probability” value in data set [1] (setting [3]) is “F (Probability of Ingredient Color Instability<71%)”. In addition, the “Log … (Comment Code K/L)” value in data set [2] (setting [3]) is recorded as “K (Log of liquid dish neat product liquid-air partition coefficient greater than or equal to −7)”.
On to `CC1=C2CC(C(C)(C)O)CCC2(C)CCC1` (stereo not shown) [Material 872], for which the “Probability” value in data set [1] was “F (Probability of Ingredient Color Instability<71%)”. In data set [2], the “Log … (Comment Code K/L)” value is on record as “K (Log of liquid dish neat product liquid-air partition coefficient greater than or equal to −7)” and the “Comment Code: Log of liquid dish neat product liquid-air partition coefficient” value is on record as “K (Log of liquid dish neat product liquid-air partition coefficient greater than or equal to −7)”.
Regarding `CC(CC=O)CCc1ccccc1` (stereo not shown) [Material 807], the “Probability” value in data set [1] is reported as “F (Probability of Ingredient Color Instability<71%)”. Also, the “Log … (Comment Code K/L)” value in data set [2] is recorded as “K (Log of liquid dish neat product liquid-air partition coefficient greater than or equal to −7)”.
Regarding `CC1CCC2(O1)C(C)(C)CCCC2(C)O` (stereo not shown) [Material 893], the “Probability” value in data set [1] was “F (Probability of Ingredient Color Instability<71%)”. The “Log … (Comment Code K/L)” value in data set [2] was “K (Log of liquid dish neat product liquid-air partition coefficient greater than or equal to −7)”.
For `CCCCCCCCCCC=CC=O` [Material 930], in that order: “F (Probability of Ingredient Color Instability<71%)” and “K (Log of liquid dish neat product liquid-air partition coefficient greater than or equal to −7)”.
Consider `CCCCCC1C(=O)CCC1CC(=O)OC` (stereo not shown) [Material 113], for which the “Probability” value in data set [1] (setting [3]) is reported as “F (Probability of Ingredient Color Instability<71%)”. Besides, the “Log … (Comment Code K/L)” value in data set [2] (setting [3]) was “K (Log of liquid dish neat product liquid-air partition coefficient greater than or equal to −7)”.
Take `C/C=C/c1cc(OC)c(OC)cc1OC` [Material 924]: the “Probability” value in data set [1] is reported as “F (Probability of Ingredient Color Instability<71%)”. Further, the “Log … (Comment Code K/L)” value in data set [2] is listed as “K (Log of liquid dish neat product liquid-air partition coefficient greater than or equal to −7)”.
`CCOC(=O)C1OC1(C)c1ccccc1` (stereo not shown) [Material 377]: in data set [1] (setting [3]), the “Probability” value is “F (Probability of Ingredient Color Instability<71%)”. Moreover, the “Log … (Comment Code K/L)” value in data set [2] (setting [3]) was “K (Log of liquid dish neat product liquid-air partition coefficient greater than or equal to −7)”.
For `CCCCCCCCCCCCCC=O` [Material 36] the same measures were “F (Probability of Ingredient Color Instability<71%)” and “K (Log of liquid dish neat product liquid-air partition coefficient greater than or equal to −7)”.
Take `O=C(Oc1ccccc1)c1ccccc1` [Material 965]: in data set [1], the “Probability” value was “F (Probability of Ingredient Color Instability<71%)”. For the same compound, in data set [2], the “Log … (Comment Code K/L)” value is “K (Log of liquid dish neat product liquid-air partition coefficient greater than or equal to −7)”.
As for `CC1=C(CCC(C)C=O)C(C)(C)CCC1` (stereo not shown) [Material 560], the “Probability” value in data set [1] (setting [3]) is “F (Probability of Ingredient Color Instability<71%)”. Also, the “Log … (Comment Code K/L)” value in data set [2] (setting [3]) is “K (Log of liquid dish neat product liquid-air partition coefficient greater than or equal to −7)”.
`CC(C)=CCCC1=CCC(C=O)CC1` (stereo not shown) [Material 211]: in data set [1] (setting [3]), the “Probability” value is given as “F (Probability of Ingredient Color Instability<71%)”. Besides, the “Log … (Comment Code K/L)” value in data set [2] (setting [3]) is listed as “K (Log of liquid dish neat product liquid-air partition coefficient greater than or equal to −7)”.
Take `CC(C)c1ccc(CCC=O)cc1` [Material 826]: in data set [1], the “Probability” value is given as “F (Probability of Ingredient Color Instability<71%)”. In addition, in data set [2], the “Log … (Comment Code K/L)” value is recorded as “K (Log of liquid dish neat product liquid-air partition coefficient greater than or equal to −7)”.
On to `CC(C)=CCCC1=CCC(C)(C=O)CC1` (stereo not shown) [Material 727], for which the “Probability” value in data set [1] is “F (Probability of Ingredient Color Instability<71%)”. For the same compound, the “Log … (Comment Code K/L)” value in data set [2] is given as “K (Log of liquid dish neat product liquid-air partition coefficient greater than or equal to −7)”.
With `CC1(C)C2CC=C(CCC=O)C1C2` (stereo not shown) [Material 781], in data set [1], the “Probability” value is “F (Probability of Ingredient Color Instability<71%)”. Besides, in data set [2], the “Log … (Comment Code K/L)” value is given as “K (Log of liquid dish neat product liquid-air partition coefficient greater than or equal to −7)”.
`CC1=CCC(C(C)CC=O)CC1` (stereo not shown) [Material 159]: the “Probability” value in data set [1] (setting [3]) is listed as “F (Probability of Ingredient Color Instability<71%)”. The “Log … (Comment Code K/L)” value in data set [2] (setting [3]) is reported as “K (Log of liquid dish neat product liquid-air partition coefficient greater than or equal to −7)”.
Regarding `CC(C)=CCCC1=CCC(C)(C=O)CC1` (stereo not shown) [Material 988], the “Probability” value in data set [1] is given as “F (Probability of Ingredient Color Instability<71%)”. In addition, the “Log … (Comment Code K/L)” value in data set [2] was “K (Log of liquid dish neat product liquid-air partition coefficient greater than or equal to −7)”.
For `CC(C)=CCCC(C)(O)C1CC=C(C)CC1` (stereo not shown) [Material 718], in that order: “F (Probability of Ingredient Color Instability<71%)” and “K (Log of liquid dish neat product liquid-air partition coefficient greater than or equal to −7)”.
For `N#CC(=C1CCCCC1)c1ccccc1` [Material 945] the same measures were “F (Probability of Ingredient Color Instability<71%)” and “K (Log of liquid dish neat product liquid-air partition coefficient greater than or equal to −7)”.
With `CC1(O)CCOC2(CCCCC2)C1` (stereo not shown) [Material 16], the “Probability” value in data set [1] (setting [3]) is on record as “F (Probability of Ingredient Color Instability<71%)”. Also, the “Log … (Comment Code K/L)” value in data set [2] (setting [3]) was “K (Log of liquid dish neat product liquid-air partition coefficient greater than or equal to −7)”.
Turning to `CC(C)CCCC(C)CCCC(C)C=O` (stereo not shown) [Material 741], the “Probability” value in data set [1] was “F (Probability of Ingredient Color Instability<71%)”. Besides, the “Log … (Comment Code K/L)” value in data set [2] is “K (Log of liquid dish neat product liquid-air partition coefficient greater than or equal to −7)”.
For `CC=CC(=O)OC(C)C1CCCCC1` (stereo not shown) [Material 475], in data set [1] (setting [3]), the “Probability” value is “F (Probability of Ingredient Color Instability<71%)”. Also, the “Log … (Comment Code K/L)” value in data set [2] (setting [3]) is “K (Log of liquid dish neat product liquid-air partition coefficient greater than or equal to −7)”.
Regarding `CC1=C2CC(C(C)(C)O)CCC2(C)CCC1` (stereo not shown) [Material 329], the “Probability” value in data set [1] (setting [3]) is “F (Probability of Ingredient Color Instability<71%)”. Also, the “Log … (Comment Code K/L)” value in data set [2] (setting [3]) was “K (Log of liquid dish neat product liquid-air partition coefficient greater than or equal to −7)”. In data set [2], the “Comment Code: Log of liquid dish neat product liquid-air partition coefficient” value is on record as “K (Log of liquid dish neat product liquid-air partition coefficient greater than or equal to −7)”.
Regarding `CCCCCCCCCC(C)C=O` (stereo not shown) [Material 103], in data set [1] (setting [3]), the “Probability” value was “F (Probability of Ingredient Color Instability<71%)”. In addition, the “Log … (Comment Code K/L)” value in data set [2] (setting [3]) is “K (Log of liquid dish neat product liquid-air partition coefficient greater than or equal to −7)”.
For `CCCCCCCCCCCC=O` [Material 178] the same measures were “F (Probability of Ingredient Color Instability<71%)” and “K (Log of liquid dish neat product liquid-air partition coefficient greater than or equal to −7)”.
As for `CCCCCCC/C=C\CCC=O` [Material 1045], the “Probability” value in data set [1] was “F (Probability of Ingredient Color Instability<71%)”. In addition, the “Log … (Comment Code K/L)” value in data set [2] is listed as “K (Log of liquid dish neat product liquid-air partition coefficient greater than or equal to −7)”.
Regarding `CC1=CCCC2(C)OC2CCC(C)=CCC1` (racemic) [Material 568], the “Probability” value in data set [1] is on record as “F (Probability of Ingredient Color Instability<71%)”. Also, in data set [2], the “Log … (Comment Code K/L)” value was “K (Log of liquid dish neat product liquid-air partition coefficient greater than or equal to −7)”.
